Marks after values point to notes of the source that are not given here.
Assays:
[1] = test system: apomorphine-induced climbing behavior in mice; test: Apomorphine-induced climbing; type: in vivo; details: mice, po; 95% confidence limits in parentheses
Description: . […] . Animals were then challenged at 30 minutes post-injection with 1.0 mg/kg of the apomorphine in 0.9% NaCl+0.1% ascorbic acid, placed in cylindrical wire cages (12 cm in diameter, 14 cm in height), and observed for climbing behavior at 10, 20 and 30 min post dose. The climbing behaviour was scored as follows: 3–4 paws on the cage floor = 0 score; 2 and 3 paws on the cage = 1 score; 4 paws on the cage = 2 score.

dopamine D2 receptor = target: T1, dopamine D2 receptor (Rattus norvegicus, UniProt P61169); test: D2 dopaminergic binding assay ([3H]spiperone, rat striatum); details: [3H]spiperone, rat striatum; mean of three experiments; >10000 marked b: Ki not calculated, inhibition at 10 µM too low; read-out: Ki±SEM, D2
T1 construct: Rat striatum was homogenized in 20 volumes of ice-cold 50 mM Tris-HCl buffer; from tissue; host or cells: rat striatum
T1 sequence (P61169 whole entry): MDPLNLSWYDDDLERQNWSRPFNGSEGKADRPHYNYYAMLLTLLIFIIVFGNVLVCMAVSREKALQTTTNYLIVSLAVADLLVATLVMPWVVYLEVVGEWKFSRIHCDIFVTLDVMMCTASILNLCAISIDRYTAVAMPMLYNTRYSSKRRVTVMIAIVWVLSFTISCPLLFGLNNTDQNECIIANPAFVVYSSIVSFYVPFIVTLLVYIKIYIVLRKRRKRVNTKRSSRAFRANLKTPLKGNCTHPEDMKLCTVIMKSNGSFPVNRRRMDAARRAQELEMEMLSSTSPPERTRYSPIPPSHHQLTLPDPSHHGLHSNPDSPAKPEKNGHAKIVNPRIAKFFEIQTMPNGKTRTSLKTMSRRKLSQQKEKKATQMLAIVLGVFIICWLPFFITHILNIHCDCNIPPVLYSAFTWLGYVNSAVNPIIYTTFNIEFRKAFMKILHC
Description: (§1) All the new compounds were dissolved in 5% DMSO. The following specific radioligands and tissue sources were used: (a) serotonin 5-HT1A receptor, [^3H]8-OH-DPAT, rat brain cortex; (b) serotonin 5-HT2A receptor, [^3H]ketanserin, rat brain cortex; (c) serotonin 5-HT2C receptor, [^3H]mesulergine, rat brain cortex; (d) dopamine D2 receptor, [^3H]spiperone, rat striatum; (e) dopamine D3 receptor, [^3H]spiperone, rat olfactory tubercle (f) histamine H1 receptor, [^3H] pyrilamine, guinea pig cerebellum.
(§2) Total binding was determined in the absence of no-specific binding and compounds. Specific binding was determined in the presence of compounds. Non-specific binding was determined as the difference between total and specific binding.
(§3) Percentage of inhibition (%) = (total binding − specific binding)×100%/(total binding − nonspecific binding).
(§4) Ki values were calculated based on the Cheng and Prussoff equation: Ki = IC50/(1+C/Kd) where C represents the concentration of the hot ligand used and Kd its receptor dissociation constant were calculated for each labeled ligand. Mean Ki values and SEM were reported for at least three independent experiments.
Rat striatum was homogenized in 20 volumes of ice-cold 50 mM Tris-HCl buffer (pH 7.7) using an ULTRA TURAX homogeniser, and centrifuged twice for 10 min at 48,000 g with resuspension of the pellet in fresh buffer. The final pellet was resuspended in 50 mM ice-cold Tris-HCl containing 120 mM NaCl, 5 mM KCl, 2 mM CaCl2, 1 mM MgCl2, 0.1% ascorbic acid and 5 µM pargyline.
Total binding each assay tube was added 900 µL of the tissue suspension, 50 µL of 0.5 nM [^3H]spiperone (16.2 Ci/mmol; Perkin Elmer Life Sciences, Boston, MA, USA), 50 µL Tris-HCl buffer containing 120 mM NaCl, 5 mM KCl, 2 mM CaCl2, 1 mM MgCl2, 0.1% ascorbic acid and 5 µM pargyline.
Non-specific binding each assay tube was added 900 µL of the tissue suspension, 50 µL of 0.5 nM [^3H]spiperone, 50 µL of 10 µM (+)-butaclamol.
Specific binding each assay tube was added 900 µL of the tissue suspension, 50 µL of 0.5 nM [^3H]spiperone, 50 µL of new compounds or reference drug.
(§5) The incubation was followed by a rapid vacuum filtration through Whatman GF/B glass filters, and the filtrates were washed twice with 5 mL cold buffer and transferred to scintillation vials. Scintillation fluid (3.0 mL) was added and the radioactivity bound was measured using a Beckman LS 6500 liquid scintillation counter.

dopamine D3 receptor = target: T2, dopamine D3 receptor (Rattus norvegicus, UniProt P19020); test: D3 dopaminergic binding assay ([3H]spiperone, rat olfactory tubercle); details: mean of three experiments, read-out: Ki±SEM, D3
T2 construct: Rat olfactory tubercle was homogenized in 20 volumes of ice-cold 50 mM Hepes Na; from tissue; host or cells: rat olfactory tubercle
T2 sequence (P19020 whole entry): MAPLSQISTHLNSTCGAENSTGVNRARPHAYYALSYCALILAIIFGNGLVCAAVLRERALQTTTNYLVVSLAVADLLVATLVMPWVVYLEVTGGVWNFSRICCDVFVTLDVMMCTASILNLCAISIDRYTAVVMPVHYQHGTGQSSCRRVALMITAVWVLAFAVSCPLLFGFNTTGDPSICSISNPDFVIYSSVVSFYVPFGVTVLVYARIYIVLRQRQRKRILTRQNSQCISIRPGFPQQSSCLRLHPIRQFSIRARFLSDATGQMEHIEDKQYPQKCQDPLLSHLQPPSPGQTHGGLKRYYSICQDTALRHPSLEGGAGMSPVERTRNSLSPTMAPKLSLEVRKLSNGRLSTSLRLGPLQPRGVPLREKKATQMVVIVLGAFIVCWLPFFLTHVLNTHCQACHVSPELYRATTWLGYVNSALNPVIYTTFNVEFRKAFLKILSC
Description: as §1, §2, §3, §4, §5

histamine H1 receptor = target: T3, histamine H1 receptor (Cavia porcellus, UniProt P31389); test: Histamine H1 binding assay ([3H]pyrilamine, guinea pig cerebellum); details: [3H]pyrilamine, guinea pig cerebellum; mean of three experiments; >10000 marked b: Ki not calculated, inhibition at 10 µM too low; read-out: Ki±SEM, H1
T3 construct: Guinea pig cerebellum was homogenized in 20 volumes of ice-cold 50 mM phosphate buffer; from tissue; host or cells: guinea pig cerebellum
T3 sequence (P31389 whole entry): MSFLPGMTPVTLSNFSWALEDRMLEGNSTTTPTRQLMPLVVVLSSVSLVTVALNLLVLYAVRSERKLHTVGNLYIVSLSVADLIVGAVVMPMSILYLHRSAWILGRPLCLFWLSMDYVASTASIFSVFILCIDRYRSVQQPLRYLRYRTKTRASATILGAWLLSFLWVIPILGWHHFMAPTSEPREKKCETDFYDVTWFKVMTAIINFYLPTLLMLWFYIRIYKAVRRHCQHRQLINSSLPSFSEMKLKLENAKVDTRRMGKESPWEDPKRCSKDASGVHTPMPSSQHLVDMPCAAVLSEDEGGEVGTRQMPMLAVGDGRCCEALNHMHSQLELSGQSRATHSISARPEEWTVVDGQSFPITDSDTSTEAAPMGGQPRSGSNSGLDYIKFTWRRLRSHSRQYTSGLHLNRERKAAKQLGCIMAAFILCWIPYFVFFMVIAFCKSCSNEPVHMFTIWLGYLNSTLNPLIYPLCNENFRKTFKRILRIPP
Description: as §1, §2, §3, §4, §5

[2] = Pharmacokinetics study in rat; type: in vivo; details: rats
Description: The HPLC conditions were as follows: column, Shim-pack ODS 5.0 µm×150 mm×2.0 mm I.D (SHIMADZU, Japanese); mobile phase, 0.0167% HCOOH (TEDIA Company, USA)/acetonitrile (Merck Company, Germany)50/50; flow rate, 0.2 mL/min; column temperature, 40°C.
For routine compound 22 screening rats (n = 6/group) were dosed via the lateral tail vein at the indicated dose for intravenous administration (5 mg/kg, 100% saline) or via oral gavage (20 mg/kg, suspension in 0.5% methylcellulose). At 30 min, 1 h, 2 h, 3 h, 4 h, 5 h, 6 h, 7 h and 24 h after administration, serial blood samples were collected from the lateral tail vein into heparinized collection tubes (approximately 0.25 mL). The plasma was separated by centrifugation, and the sample was prepared for analysis HPLC/MS by protein precipitation with acetonitrile. The plasma samples were analyzed for drug and internal standard via HPLC-MS/MS protocol.

Compound: Fc1ccc2c(C3CCN(CCCSc4nnc(-c5cccc6ccccc56)o4)CC3)noc2c1 [Compound 22, 2-(3-(4-(6-fluorobenzo[d]isoxazol-3-yl)piperidin-1-yl)propylthio)-5-(naphthalen-1-yl)-1,3,4-oxadiazole]
- Apomorphine-induced climbing ED50 (A) [1]: 3.68 (2.79–4.86) ^a mg/kg
- Ki (dopamine D2 receptor): 23 ± 2.6 nM
- Ki (dopamine D3 receptor): 7.7 ± 0.6 nM
- Ki (histamine H1 receptor): > 10000 nM
- AUC0-inf ([2]; i.v. 5 mg/kg, plasma, n = 6): 6239.0 ng·h/mL
- t1/2 ([2]; i.v. 5 mg/kg, plasma, n = 6): 9.3 h
- F (bioavailability) ([2]; oral 20 mg/kg vs i.v. 5 mg/kg): 54.5%
- AUC0-inf ([2]; oral 20 mg/kg, plasma, n = 6): 13602.7 ng·h/mL
- Cmax ([2]; oral 20 mg/kg, plasma, n = 6): 723.6 ng/mL
- Tmax ([2]; oral 20 mg/kg, plasma, n = 6): 5 h
- t1/2 ([2]; oral 20 mg/kg, plasma, n = 6): 8.6 h
